From ChEMBL document CHEMBL3227990, “Aminotetralins as narcotic antagonists. Synthesis and opiate-related activity of 1-phenyl-2-aminotetralin derivatives” (J Med Chem, 1979) come the findings set out here.

The species entered for series [1] is Mus musculus. Kind of series: Toxicity in mouse assessed as convulsant activity. In kind it is organism-based. Conditions: in vivo.
The species named for series [2] is Mus musculus. Briefly: Inhibition of morphine-induced analgesia in mouse assessed as dose required for 50% antagonism of analgesia by tail flick test. The class given is functional. (In general: Thermal pain tests record how soon the animal reacts.)
For series [3], the species on record is Mus musculus. Briefly: Analgesic activity in mouse by hot plate test. In kind it is functional.

Structures are written as SMILES. Where only a bound is given, the exact number is not on record here.

Take `CN(CC1CC1)[C@@H]1CCc2ccccc2[C@@]1(O)c1ccccc1.Cl`: the Activity result in the series listed under Mus musculus [1] is listed as “Toxic”. Also, the AD50 entry in the series listed under Mus musculus [2] is “>=30 mg kg-1”.
The molecule `CO[C@@]1(c2ccccc2)c2ccccc2CC[C@H]1N(C)CC1CC1.Cl` came in with a 50% effective dose (ED50) in the series filed under Mus musculus [3] of at least 50 mg/kg. Besides, the AD50 in the series listed under Mus musculus [2] was 33.5 mg/kg.
The molecule `CCC(=O)O[C@@]1(c2ccccc2)c2ccccc2CC[C@H]1N(C)CC1CC1.Cl` came in with an ED50 in the series listed under Mus musculus [3] of 17.8 mg/kg. In addition, the AD50 result in the series filed under Mus musculus [2] was “>=100 mg kg-1”.
For `CN1CC[C@]23c4c5ccc(O)c4O[C@H]2[C@@H](O)C=C[C@H]3[C@H]1C5` [MORPHINE], the median effective dose (ED50) in the series filed under Mus musculus [3] amounted to 1.1 mg/kg.

The term ED50 denotes the dose at which the effect has come halfway, by size or by number of responders. Low values mean greater potency, high ones weaker potency.
